Laboratory results published in patent US9326515B2, “Fungicidal 3-[(1,3-thiazol-4-ylmethoxyimino)(phenyl)methyl]-2-substituted-1,2,4-oxadiazol-5(2H)-one derivatives” (BAYER INTELLECTUAL PROPERTY GMBH, priority 2011, dated 2016).
Where two headings read alike, the source gives them in different places.

Legend:
Phytophthora infestans [1] = format: in vivo; settings: 500 ppm, spray on tomato plants, contaminated after 24 hours, grading 5 days after contamination vs control plants
Botrytis cinerea = test: Example C: in vivo preventive test on Botrytis cinerea (grey mould); settings: 500 ppm, spray on gherkin plants, contaminated after 24 hours, grading 4 to 5 days after contamination vs control plants
Method: (§1) The active ingredients tested are prepared by homogenization in a mixture of acetone/tween/DMSO and then diluted with water to obtain the desired active material concentration.
(§2) Gherkin plants (“Vert petit de Paris” variety), sown in starter cups on a 50/50 peat soil-pozzolana substrate and grown at 24° C., are treated at the Z11 cotyledon stage by spraying with the active ingredient prepared as described above. Plants, used as controls, are treated with the mixture of acetone/tween/DMSO/water not containing the active material.
After 24 hours, the plants are contaminated by spraying the cotyledons with an aqueous suspension of cryopreserved Botrytis cinerea spores (50 000 spores per ml). The spores are suspended in a nutrient solution composed of 10 g/L of PDB, 50 g/L of D-Fructose, 2 g/L of NH4NO3 and 1 g/L of KH2PO4. The contaminated gherkin plants are incubated at 17° C. and at 90% relative humidity.
Grading (% of efficacy) is carried out 4 to 5 days after the contamination, in comparison with the control plants.
(§3) Under these conditions, good (at least 70%) or total protection is observed at a dose of 500 ppm with the following compounds: […]

[2] = pH 2.7
[3] = for chromatographic logP: pH 2.7; for LogP: table 1, compounds of formula (I), HPLC reversed phase, pH 2.7, 0.1% formic acid in water / acetonitrile gradient
Phytophthora infestans [4] = format: in vivo; settings: 100 ppm of active ingredient, spray on young tomato plants, inoculated one day after treatment, evaluated 7 days after inoculation
Plasmopara viticola = test: Example I: in vivo preventive test on Plasmopara viticola (grapevines); settings: 10 ppm of active ingredient, spray on young grapevine plants, inoculated after spray coating dried, evaluated 6 days after inoculation
Method: To produce a suitable preparation of active compound, 1 part by weight of active compound is mixed with the stated amounts of solvent and emulsifier, and the concentrate is diluted with water to the desired concentration.
To test for preventive activity, young plants are sprayed with the preparation of active compound at the stated rate of application. After the spray coating has dried on, the plants are inoculated with an aqueous spore suspension of Plasmopara viticola and then remain for 1 day in an incubation cabinet at approximately 20° C. and a relative atmospheric humidity of 100%. The plant is subsequently placed for 4 days in a greenhouse at approximately 21° C. and a relative atmospheric humidity of approximately 90%. The plants are then misted and placed for 1 day in an incubation cabinet.
The test is evaluated 6 days after the inoculation. 0% means an efficacy which corresponds to that of the untreated control, while an efficacy of 100% means that no disease is observed.

Puccinia recondita = test: Example F: in vivo preventive test on Puccinia recondita (brown rust on wheat); settings: 500 ppm, spray on wheat plants, contaminated after 24 hours, grading 12 days after contamination vs control plants
Method: The active ingredients tested are prepared by homogenization in a mixture of acetone/tween/DMSO, and then diluted with water to obtain the desired active material concentration.
Wheat plants (“Scipion” variety), sown in starter cups on a 50/50 peat soil-pozzolana substrate and grown at 22° C., are treated at the 1-leaf stage (10 cm height) by spraying with the active ingredient prepared as described above. Plants, used as controls, are treated with the mixture of acetone/tween/DMSO/water not containing the active material.
After 24 hours, the plants are contaminated by spraying the leaves with an aqueous suspension of Puccinia recondita spores (100 000 spores per ml). The spores are collected from an infected plant and are suspended in water containing 2.5 ml/l of Tween 80 at 10%. The contaminated wheat plants are incubated for 24 hours at 20° C. and at 100% relative humidity, and then for 10 days at 20° C. and at 70-80% relative humidity.
(§4) Grading (% of efficacy) is carried out 12 days after the contamination, in comparison with the control plants.
as §3

Sphaerotheca fuliginea = test: Example D: in vivo preventive test on Sphaerotheca fuliginea (powdery mildew on cucurbits); settings: 500 ppm, spray on gherkin plants, contaminated after 24 hours, grading 12 days after contamination vs control plants
Method: as §1, §2
After 24 hours, the plants are contaminated by spraying the cotyledons with an aqueous suspension of Sphaerotheca fuliginea spores (100 000 spores per ml). The spores are collected from infected plants. The contaminated gherkin plants are incubated at about 20° C. and at 70-80% relative humidity.
as §4, §3

Compound	% efficacy (Phytophthora infestans [1]) [%]	LogP [2]	chromatographic logP [3]	Eff. % (Phytophthora infestans [4]) [%]	Eff. % (Plasmopara viticola) [%]	other results
C#CCCC(C)OC(=O)Nc1nc(CO/N=C(/c2ccccc2)c2nc(=O)on2C)cs1 (racemic) [Example 32]	99	3.00	–	–	–	% efficacy (Botrytis cinerea): 79%
Cn1oc(=O)nc1/C(=N\OCc1csc(N)n1)c1ccccc1 [Example 4, 3-[(Z)-{[(2-amino-1,3-thiazol-4-yl)methoxy]imino}(phenyl)methyl]-2-methyl-1,2,4-oxadiazol-5(2H)-one]	–	–	1.07	–	–	–
Cn1oc(=O)nc1/C(=N\OCc1csc(NC(=O)C2COc3ccccc3O2)n1)c1ccccc1 (stereo not shown) [Example 9, N-{4-[({[(Z)-(2-methyl-5-oxo-2,5-dihydro-1,2,4-oxadiazol-3-yl)(phenyl)methylene]amino}oxy)methyl]-1,3-thiazol-2-yl}-2,3-dihydro-1,4-benzodioxine-2-carboxamide]	–	–	3.11	98	97	–
C#CCCOC(=O)Nc1nc(CON=C(c2ccccc2)c2nc(=O)on2C)cs1 [Example 11]	–	2.56	–	70	78	–
CCCCCC(=O)Nc1nc(CON=C(c2ccccc2)c2nc(=O)on2C)cs1 [Example 12]	–	3.19	–	92	94	–
CCCCCCCC(=O)Nc1nc(CON=C(c2ccccc2)c2nc(=O)on2C)cs1 [Example 13]	–	3.94	–	95	99	–
Cn1oc(=O)nc1C(=NOCc1csc(NC(=O)OCCc2ccccc2)n1)c1ccccc1 [Example 14]	–	3.35	–	95	99	–
Cn1oc(=O)nc1C(=NOCc1csc(NC(=O)C2(C)CC2)n1)c1ccccc1 [Example 16]	–	2.66	–	97	91	–
Cn1oc(=O)nc1C(=NOCc1csc(NC(=O)COCc2ccccc2)n1)c1ccccc1 [Example 17]	–	3.06	–	100	94	–
Cn1oc(=O)nc1C(=NOCc1csc(NC(=O)SC(C)(C)C)n1)c1ccccc1 [Example 18]	–	3.44	–	97	93	–
CC(OCc1ccccc1)C(=O)Nc1nc(CON=C(c2ccccc2)c2nc(=O)on2C)cs1 (stereo not shown) [Example 19]	100	–	–	–	91	LogP [3]: 3.29
Cn1oc(=O)nc1C(=NOCc1csc(NC(=O)OC(C)(C)C)n1)c1ccccc1 [Example 20]	–	3.06	–	92	94	–
Cn1oc(=O)nc1/C(=N\OCc1csc(NC(=O)C2CCc3ccccc3O2)n1)c1ccccc1 (stereo not shown) [Example 22, N-{4-[({[(Z)-(2-methyl-5-oxo-2,5-dihydro-1,2,4-oxadiazol-3-yl)(phenyl)methylene]amino}oxy)methyl]-1,3-thiazol-2-yl}chromane-2-carboxamide]	–	–	3.35	100	96	–
Cn1oc(=O)nc1C(=NOCc1csc(NC(=O)COC2CCCCC2)n1)c1ccccc1 [Example 23]	100	–	–	100	–	LogP [3]: 3.42
Cn1oc(=O)nc1C(=NOCc1csc(NC(=O)C2Cc3ccccc3O2)n1)c1ccccc1 (stereo not shown) [Example 24]	100	3.06	–	84	93	–
Cc1cccc2c1OC(C(=O)Nc1nc(CON=C(c3ccccc3)c3nc(=O)on3C)cs1)CO2 (stereo not shown) [Example 25]	–	3.42	–	92	96	–
Cn1oc(=O)nc1C(=NOCc1csc(NC(=O)C2CCc3ccccc3C2)n1)c1ccccc1 (stereo not shown) [Example 26]	–	3.55	–	92	94	–
Cc1ccc(OC(C)C(=O)Nc2nc(CON=C(c3ccccc3)c3nc(=O)on3C)cs2)cc1 (stereo not shown) [Example 27]	–	3.46	–	95	96	–
C#CCCCOC(=O)Nc1nc(CON=C(c2ccccc2)c2nc(=O)on2C)cs1 [Example 29]	95	2.77	–	–	–	% efficacy (Puccinia recondita): 94%
C#CCCCCOC(=O)Nc1nc(CON=C(c2ccccc2)c2nc(=O)on2C)cs1 [Example 30]	100	3.02	–	–	90	% efficacy (Sphaerotheca fuliginea): 78%; % efficacy (Puccinia recondita): 98%
CCC(C)SC(=O)Nc1nc(CON=C(c2ccccc2)c2nc(=O)on2C)cs1 (stereo not shown) [Example 31]	100	3.46	–	–	–	% efficacy (Botrytis cinerea): 82%
COc1cccc(/C(=N/OCc2csc(NC(=O)OC3CCCCC3)n2)c2nc(=O)on2C)c1 [Example 33, Cyclohexyl {4-[({[(Z)-(3-methoxyphenyl)(2-methyl-5-oxo-2,5-dihydro-1,2,4-oxadiazol-3-yl)methylene]amino}oxy)methyl]-1,3-thiazol-2-yl}carbamate]	88	–	3.57	–	–	–
COc1cccc(/C(=N/OCc2csc(NC(=O)OC(C)(C)C)n2)c2nc(=O)on2C)c1 [Example 34]	100	3.13	–	–	95	–
Cn1oc(=O)nc1/C(=N\OCc1csc(NC(=O)Cc2ccc(Cl)cc2)n1)c1ccccc1 [Example 98, 2-(4-chlorophenyl)-N-{4-[({[(Z)-(2-methyl-5-oxo-2,5-dihydro-1,2,4-oxadiazol-3-yl)(phenyl)methylene]amino}oxy)methyl]-1,3-thiazol-2-yl}acetamide]	–	–	3.23	–	–	–
Cn1oc(=O)nc1/C(=N\OCc1csc(Br)n1)c1ccccc1 [Example 99, 3-[(Z)-{[(2-bromo-1,3-thiazol-4-yl)methoxy]imino}(phenyl)methyl]-2-methyl-1,2,4-oxadiazol-5(2H)-one]	–	–	2.68	–	–	–
Cn1oc(=O)nc1/C(=N\OCc1csc(NC(=S)Cc2ccc(Cl)cc2)n1)c1ccccc1 [Example 100, 2-(4-chlorophenyl)-N-{4-[({[(Z)-(2-methyl-5-oxo-2,5-dihydro-1,2,4-oxadiazol-3-yl)(phenyl)methylene]amino}oxy)methyl]-1,3-thiazol-2-yl}ethanethioamide]	–	–	4.04	–	–	–
Cn1oc(=O)nc1/C(=N/OCc1csc(NC(=S)Cc2ccc(Cl)cc2)n1)c1ccccc1 [Example 101, 2-(4-chlorophenyl)-N-{4-[({[(E)-(2-methyl-5-oxo-2,5-dihydro-1,2,4-oxadiazol-3-yl)(phenyl)methylene]amino}oxy)methyl]-1,3-thiazol-2-yl}ethanethioamide]	–	–	3.85	–	–	–
CN(O)C(=N)/C(=N\OCc1csc(N)n1)c1ccccc1 [Example V-2, (2Z)-2-{[(2-amino-1,3-thiazol-4-yl)methoxy]imino}-N-hydroxy-N-methyl-2-phenylethanimidamide]	–	–	0.47	–	–	–
CN(O)C(=N)/C(=N\OCc1csc(Br)n1)c1ccccc1 [Example V-3, (2Z)-2-{[(2-bromo-1,3-thiazol-4-yl)methoxy]imino}-N-hydroxy-N-methyl-2-phenylethanimidamide]	–	–	1.34	–	–	–
[H]/N=C(/C(=N\OCc1csc(NC(=O)OCCc2ccccc2)n1)c1ccccc1)N(O)CC [Example V-4, 2-phenylethyl (4-{[({(1Z,2Z)-2-[ethyl(hydroxy)amino]-2-imino-1-phenylethylidene}amino)oxy]methyl}-1,3-thiazol-2-yl)carbamate]	–	–	2.07	–	–	–
